In the NIST ThermoML archive (doi:10.1021/je200457q):
± gives the expanded uncertainty stated by the source.

How the values were obtained:
[1] = 298.15 K; 101.33 kPa; Liquid; Vibrating tube method
[2] = excess molar enthalpy (molar enthalpy of mixing); xn = mol fraction of the nth substance listed; details: 101 kPa, Liquid, Flow calorimetry

C=CC(C)(O)CCC=C(C)C (stereo not drawn) [3,7-dimethyl-1,6-octadien-3-ol]
Details	mass density [kg/m3]
[1]	857 ± 0.62

C=CC(C)(O)CCC=C(C)C (stereo not drawn) [3,7-dimethyl-1,6-octadien-3-ol] + CC(C)O
excess molar enthalpy [kcal/mol], [2]
Details	283.15 K	298.15 K	313.15 K	328.15 K
x1 = 0.024	-0.00789 ± 0.000478	-0.00741 ± 0.000478	-0.00574 ± 0.000478	-0.00191 ± 0.000239
x1 = 0.048	-0.011 ± 0.000478	-0.0117 ± 0.000478	-0.00908 ± 0.000478	-0.00239 ± 0.000239
x1 = 0.097	-0.0141 ± 0.000478	-0.0148 ± 0.000478	-0.0115 ± 0.000478	-0.000717 ± 0.000239
x1 = 0.195	-0.0174 ± 0.000478	-0.0174 ± 0.000478	-0.0108 ± 0.000478	0.00621 ± 0.000239
x1 = 0.292	-0.0186 ± 0.000717	-0.0172 ± 0.000478	-0.00837 ± 0.000239	0.0131 ± 0.000478
x1 = 0.392	-0.0196 ± 0.000717	-0.0163 ± 0.000478	-0.0055 ± 0.000239	0.0184 ± 0.000717
x1 = 0.49	-0.0196 ± 0.000717	-0.0134 ± 0.000478	-0.00167 ± 0.000239	0.0215 ± 0.000717
x1 = 0.592	-0.0174 ± 0.000478	-0.00884 ± 0.000478	0.00191 ± 0.000239	0.022 ± 0.000717
x1 = 0.693	-0.012 ± 0.000478	-0.00287 ± 0.000239	0.00478 ± 0.000239	0.0184 ± 0.000717
x1 = 0.796	-0.00454 ± 0.000239	0.00143 ± 0.000239	0.00454 ± 0.000239	0.0131 ± 0.000478
x1 = 0.894	0.000717 ± 0.000239	0.00215 ± 0.000239	0.00167 ± 0.000239	0.00574 ± 0.000239
x1 = 0.948	0.000478 ± 0.000239	0.000717 ± 0.000239	0.000717 ± 0.000239	0.00263 ± 0.000239

C=CC(C)(O)CCC=C(C)C (stereo not drawn) [3,7-dimethyl-1,6-octadien-3-ol] + CCCCO
excess molar enthalpy [kcal/mol], [2]
Details	283.15 K	298.15 K	313.15 K	328.15 K
x1 = 0.042	-0.00311 ± 0.000239	-0.00717 ± 0.000478	-0.00717 ± 0.000478	-0.00526 ± 0.000717
x1 = 0.085	-0.00502 ± 0.000239	-0.0143 ± 0.000478	-0.0158 ± 0.000717	-0.022 ± 0.000956
x1 = 0.174	-0.00526 ± 0.000239	-0.0227 ± 0.000717	-0.0349 ± 0.0012	-0.0526 ± 0.00167
x1 = 0.265	-0.00287 ± 0.000239	-0.0241 ± 0.000717	-0.0466 ± 0.00143	-0.0724 ± 0.00215
x1 = 0.359	-0.000239 ± 0.000239	-0.0217 ± 0.000717	-0.0514 ± 0.00143	-0.082 ± 0.00239
x1 = 0.457	0.00215 ± 0.000239	-0.0182 ± 0.000478	-0.0509 ± 0.00143	-0.0837 ± 0.00239
x1 = 0.559	0.00574 ± 0.000239	-0.0136 ± 0.000478	-0.0447 ± 0.00143	-0.0779 ± 0.00215
x1 = 0.661	0.00956 ± 0.000478	-0.00669 ± 0.000239	-0.0351 ± 0.000956	-0.0624 ± 0.00191
x1 = 0.771	0.0136 ± 0.000478	0.000717 ± 0.000239	-0.022 ± 0.000717	-0.044 ± 0.00143
x1 = 0.884	0.0141 ± 0.000478	0.00621 ± 0.000239	-0.00741 ± 0.000478	-0.021 ± 0.000717
x1 = 0.943	0.0105 ± 0.000478	0.00526 ± 0.000239	-0.00191 ± 0.000239	-0.00884 ± 0.000478
